Patent US10479795B2 (Incyte Corporation, priority 2016, dated 2019)
Where a name gives a salt, the structure may show the parent alone. Read-outs that look alike come from different tables or passages of the source.

Legend:
[1] = molecular target: PI3Kδ (p110δ/p85α) Recombinant Human Protein (Homo sapiens (Human), UniProt O00329); experiment: PI3Kδ Scintillation Proximity Assay; type: biochemical
How it was run: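 Recombinant human p110δ/p85α (3.4 nM) with 20 μM PIP2 and 2 μM ATP plus [γ-33P]ATP, in 20 mM MOPS pH 6.7, 10 mM MgCl2, 5 mM DTT, 0.03% CHAPS, 2% DMSO; 120 min at room temperature. Product captured on WGA SPA beads, scintillation counted; IC50 from percent-of-control curves.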

[2] = molecular target: PI3Kγ (p110γ) Recombinant Human Protein (Homo sapiens (Human), UniProt P48736); experiment: PI3K-γ Scintillation Proximity Assay; type: biochemical; conditions: read-out: PI3Kγ IC50
Sequence of PI3Kγ (p110γ) Recombinant Human Protein (P48736 whole entry): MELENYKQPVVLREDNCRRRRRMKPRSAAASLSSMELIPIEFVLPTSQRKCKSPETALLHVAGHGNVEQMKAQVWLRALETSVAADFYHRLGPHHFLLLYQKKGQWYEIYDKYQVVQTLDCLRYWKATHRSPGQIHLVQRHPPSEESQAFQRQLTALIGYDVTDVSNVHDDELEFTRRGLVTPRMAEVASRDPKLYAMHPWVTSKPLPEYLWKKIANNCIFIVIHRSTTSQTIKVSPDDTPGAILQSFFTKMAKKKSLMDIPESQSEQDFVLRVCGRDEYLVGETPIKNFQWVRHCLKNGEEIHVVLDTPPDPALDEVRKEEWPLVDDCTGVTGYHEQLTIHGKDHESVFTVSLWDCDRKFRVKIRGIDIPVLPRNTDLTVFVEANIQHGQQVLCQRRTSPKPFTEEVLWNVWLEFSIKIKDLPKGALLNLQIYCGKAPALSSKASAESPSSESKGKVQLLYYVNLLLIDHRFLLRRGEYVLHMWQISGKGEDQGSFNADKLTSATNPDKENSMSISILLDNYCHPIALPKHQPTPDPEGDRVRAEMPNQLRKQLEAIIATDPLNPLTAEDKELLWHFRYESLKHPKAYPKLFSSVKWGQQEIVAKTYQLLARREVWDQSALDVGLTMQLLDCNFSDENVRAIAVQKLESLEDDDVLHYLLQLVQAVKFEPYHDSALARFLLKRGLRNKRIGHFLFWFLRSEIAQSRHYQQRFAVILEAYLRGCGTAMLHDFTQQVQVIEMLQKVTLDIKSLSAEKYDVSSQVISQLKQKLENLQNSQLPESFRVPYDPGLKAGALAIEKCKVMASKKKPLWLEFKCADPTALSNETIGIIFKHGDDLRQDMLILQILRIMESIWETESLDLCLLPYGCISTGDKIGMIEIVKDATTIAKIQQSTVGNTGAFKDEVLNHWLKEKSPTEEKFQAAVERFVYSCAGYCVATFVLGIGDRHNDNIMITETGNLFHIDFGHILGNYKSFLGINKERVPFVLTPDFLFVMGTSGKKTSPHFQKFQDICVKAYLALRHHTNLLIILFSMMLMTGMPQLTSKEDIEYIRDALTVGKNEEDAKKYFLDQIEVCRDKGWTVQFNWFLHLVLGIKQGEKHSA
How it was run: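 Recombinant human p110γ assayed at room temperature in 20 mM MOPS pH 6.7, 10 mM MgCl2, 5 mM DTT, 0.03% CHAPS, 2% DMSO, with 20 μM PIP2 and 2 μM ATP plus [γ-33P]ATP. Product captured on WGA SPA beads overnight and counted; IC50 fitted from % of solvent-control activity versus log inhibitor concentration.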

[3] = system: Phosphorylated Ribosomal Protein S6 (RPS6); experiment: THP-1 RPS6 ELISA Assay; type: cell-based, Human; conditions: THP-1 cells, read-out: PI3Kγ_THP1_RPS6_ELISA IC50
Procedure: To measure the Phosphorylated Ribosomal Protein S6 (RPS6) in cell lysates, THP-1 cells (Human Acute Monocytic Leukemia) are purchased from ATCC (Manassas, Va.) and maintained in RPMI with 10% FBS (Gibco/Life Technologies, Carlsbad, Calif.). For the assay, THP-1 cells are serum starved overnight in RPMI, then plated in RPMI (2×10^5 cells/well in 90 μL) into 96-well flat-bottom tissue culture treated plates (Corning, Corning, N.Y.), in the presence or absence of a concentration range of test compounds. Covered plates are incubated for 2 hours at 37° C., 5% CO2 then treated with or without 10 nM MCP-1 (MYBioSource, San Diego, Calif.) for 15 minutes at 37° C., 5% CO2. Plates are centrifuged at 1600 RPM and supernatants are removed. Cells are lysed in Lysis Buffer (Cell Signaling, Danvers, Mass.) with Protease Inhibitor (Calbiochem/EMD, Germany), PMSF (Sigma, St Louis Mo.), HALTS (Thermo Fisher, Rockford, Ill.) for 30 min on wet ice. Cell lysates are frozen at −80° C. before testing. The lysates are tested in the Human/Mouse/Rat Phospho-RPS6 ELISA (R&D Systems, Inc. Minn, Minn.). The plate is measured using a microplate reader (SpectraMax M5 —Molecular Devices, LLC Sunnyvale, Calif.) set to 450 nm with a wavelength correction of 540. IC50 determination is performed by fitting the curve of inhibitor percent inhibition versus the log of the inhibitor concentration using the GraphPad Prism 5.0 software.

Sequence of PI3Kδ (p110δ/p85α) Recombinant Human Protein (O00329 whole entry): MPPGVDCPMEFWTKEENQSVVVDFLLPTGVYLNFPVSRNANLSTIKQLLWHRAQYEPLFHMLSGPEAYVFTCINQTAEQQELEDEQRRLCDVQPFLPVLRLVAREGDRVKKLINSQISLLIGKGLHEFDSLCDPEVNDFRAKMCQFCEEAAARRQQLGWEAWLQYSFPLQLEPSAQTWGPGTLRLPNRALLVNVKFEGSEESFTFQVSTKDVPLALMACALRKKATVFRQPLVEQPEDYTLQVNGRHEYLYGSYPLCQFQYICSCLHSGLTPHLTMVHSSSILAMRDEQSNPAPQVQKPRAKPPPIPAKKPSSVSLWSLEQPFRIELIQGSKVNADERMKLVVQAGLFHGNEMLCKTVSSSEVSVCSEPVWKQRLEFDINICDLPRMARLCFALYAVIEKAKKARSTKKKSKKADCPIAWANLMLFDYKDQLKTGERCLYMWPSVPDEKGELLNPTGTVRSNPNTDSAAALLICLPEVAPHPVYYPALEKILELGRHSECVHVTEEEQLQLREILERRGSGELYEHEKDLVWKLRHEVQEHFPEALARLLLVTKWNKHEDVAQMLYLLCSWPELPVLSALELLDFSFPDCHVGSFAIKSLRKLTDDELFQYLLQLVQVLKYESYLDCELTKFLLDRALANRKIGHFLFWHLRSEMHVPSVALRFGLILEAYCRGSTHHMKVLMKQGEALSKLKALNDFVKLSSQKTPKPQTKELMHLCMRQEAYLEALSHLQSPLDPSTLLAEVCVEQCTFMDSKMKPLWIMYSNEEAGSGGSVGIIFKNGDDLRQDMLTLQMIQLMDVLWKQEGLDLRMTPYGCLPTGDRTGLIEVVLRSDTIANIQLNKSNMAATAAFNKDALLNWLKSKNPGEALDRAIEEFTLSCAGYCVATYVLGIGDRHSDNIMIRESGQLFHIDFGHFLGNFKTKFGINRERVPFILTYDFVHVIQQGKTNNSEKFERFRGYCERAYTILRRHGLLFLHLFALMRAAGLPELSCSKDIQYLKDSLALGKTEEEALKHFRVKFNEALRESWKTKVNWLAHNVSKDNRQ
Sequence of PI3Kδ (p110δ/p85α) Recombinant Human Protein (P27986 whole entry partner): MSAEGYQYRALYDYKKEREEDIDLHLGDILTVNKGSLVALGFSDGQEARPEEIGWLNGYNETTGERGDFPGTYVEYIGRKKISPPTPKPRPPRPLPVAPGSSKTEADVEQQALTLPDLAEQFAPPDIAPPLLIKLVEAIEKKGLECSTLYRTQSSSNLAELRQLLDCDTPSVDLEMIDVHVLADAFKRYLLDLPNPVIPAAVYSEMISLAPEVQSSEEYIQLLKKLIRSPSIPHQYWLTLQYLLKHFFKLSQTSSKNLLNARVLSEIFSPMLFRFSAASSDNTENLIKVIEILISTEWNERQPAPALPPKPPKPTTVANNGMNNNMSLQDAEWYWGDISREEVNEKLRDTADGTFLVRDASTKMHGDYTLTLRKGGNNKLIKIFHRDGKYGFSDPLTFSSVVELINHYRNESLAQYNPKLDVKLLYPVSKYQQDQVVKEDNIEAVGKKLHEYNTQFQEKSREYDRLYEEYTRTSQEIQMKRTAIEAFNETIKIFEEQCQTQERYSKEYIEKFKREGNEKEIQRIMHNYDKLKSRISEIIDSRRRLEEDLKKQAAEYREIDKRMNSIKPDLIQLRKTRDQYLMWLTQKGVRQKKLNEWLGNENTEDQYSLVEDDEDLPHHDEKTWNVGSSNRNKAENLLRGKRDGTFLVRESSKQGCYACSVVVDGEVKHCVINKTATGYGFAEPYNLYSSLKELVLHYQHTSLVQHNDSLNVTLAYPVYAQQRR

| Compound | IC50 [1] [nM] | IC50 [2] [nM] | IC50 ([3]; Homo sapiens) [nM] | IC50 [3] [nM] |
| --- | --- | --- | --- | --- |
| Cc1ccc(S(=O)(=O)N[C@H]2CC[C@H](O)CC2)cc1-c1cnc2c(N)nc(-c3cccc(F)c3)cn12 [Example 21, 3-[8-Amino-6-(3-fluorophenyl)imidazo[1,2-a]pyrazin-3-yl]-N-(trans-4-hydroxycyclohexyl)-4-methylbenzenesulfonamide] | < 100 | < 100 | < 100 |  |
| Cc1ccc(S(=O)(=O)N[C@H]2CC[C@H](O)CC2)cc1-c1cn2cc(-c3ccccc3F)nc(N)c2n1 [Example 22, 3-[8-Amino-6-(2-fluorophenyl)imidazo[1,2-a]pyrazin-2-yl]-N-(trans-4-hydroxycyclohexyl)-4-methylbenzenesulfonamide] | < 100 | < 100 |  | < 100 |
| Cc1ccc(S(=O)(=O)N[C@H]2CC[C@H](O)CC2)cc1-c1cnc2c(N)nc(-c3ccccc3)cn12 [Example 23, 3-[8-Amino-6-phenylimidazo[1,2-a]pyrazin-3-yl]-N-(trans-4-hydroxycyclohexyl)-4-methylbenzenesulfonamide] | < 100 | < 100 | < 100 |  |
| Cc1ccc(S(=O)(=O)N[C@H]2CC[C@H](O)CC2)cc1-c1cn2cc(-c3ccc(C#N)cc3)nc(N)c2n1 [Example 24, 3-[8-Amino-6-(4-cyanophenyl)imidazo[1,2-a]pyrazin-2-yl]-N-(trans-4-hydroxycyclohexyl)-4-methylbenzenesulfonamide] | < 100 | < 100 |  | 100 to 500 |
| Cc1ccc(S(=O)(=O)N[C@H]2CC[C@H](O)CC2)cc1-c1cnc2c(N)nc(-c3ccncc3)cn12 [Example 25, 3-(8-Amio-6-pyridin-4-ylimidazo[1,2-a]pyrazin-3-yl)-N-(trans-4-hydroxycyclohexyl)-4-methylbenzenesulfonamide] | 100 to 500 | < 100 | 100 to 500 |  |
| Cc1ccc(S(=O)(=O)N[C@H]2CC[C@H](O)CC2)cc1-c1cnc2c(N)nc(-c3cccnc3)cn12 [Example 26, 3-(8-Amino-6-pyridin-3-ylimidazo[1,2-a]pyrazin-3-yl)-N-(trans-4-hydroxycyclohexyl)-4-methylbenzenesulfonamide] | < 100 | < 100 | 100 to 500 |  |
| Cc1ccc(S(=O)(=O)N[C@H]2CC[C@H](O)CC2)cc1-c1cnc2c(N)nc(-c3cccs3)cn12 [Example 27, 3-[8-Amino-6-(2-thienyl)imidazo[1,2-a]pyrazin-3-yl]-N-(trans-4-hydroxycyclohexyl)-4-methylbenzenesulfonamide] | 100 to 500 | < 100 | < 100 |  |
| Cc1ccc(S(=O)(=O)N[C@H]2CC[C@H](O)CC2)cc1-c1cnc2c(N)nc(-c3ccnn3C)cn12 [Example 28, 3-[8-Amino-6-(1-methyl-1H-pyrazol-5-yl)imidazo[1,2-a]pyrazin-3-yl]-N-(trans-4-hydroxycyclohexyl)-4-methylbenzenesulfonamide] | 100 to 500 | < 100 | 100 to 500 |  |
| Cc1ccc(S(=O)(=O)N[C@H]2CC[C@H](O)CC2)cc1-c1cnc2c(N)nc(-c3cnn(C)c3)cn12 [Example 29, 3-[8-Amino-6-(1-methyl-1H-pyrazol-4-yl)imidazo[1,2-a]pyrazin-3-yl]-N-(trans-4-hydroxycyclohexyl)-4-methylbenzenesulfonamide] | 100 to 500 | < 100 | > 1000 |  |
| COc1cccc(-c2cn3c(-c4cc(S(=O)(=O)N[C@H]5CC[C@H](O)CC5)ccc4C)cnc3c(N)n2)c1F [Example 30, 3-[8-Amino-6-(2-fluoro-3-methoxyphenyl)imidazo[1,2-a]pyrazin-3-yl]-N-(trans-4-hydroxycyclohexyl)-4-methylbenzenesulfonamide] | < 100 | < 100 | < 100 |  |
| CNC(=O)c1ccc(F)c(-c2cn3c(-c4cc(S(=O)(=O)N[C@H]5CC[C@H](O)CC5)ccc4C)cnc3c(N)n2)c1 [Example 31, 3-[8-Amino-3-(5-{[(trans-4-hydroxycyclohexyl)amino]sulfonyl}-2-methylphenyl)imidazo[1,2-a]pyrazin-6-yl]-4-fluoro-N-methylbenzamide] | < 100 | < 100 | > 1000 |  |
| Cc1ccc(S(=O)(=O)N[C@H]2CC[C@H](O)CC2)cc1-c1cnc2c(N)nc(-c3ccc(CO)cc3F)cn12 [Example 32, 3-{8-Amino-6-[2-fluoro-4-(hydroxymethyl)phenyl]imidazo[1,2-a]pyrazin-3-yl}-N-(trans-4-hydroxycyclohexyl)-4-methylbenzenesulfonamide] | < 100 | < 100 | < 100 |  |
| Cc1ncc(-c2cn3c(-c4cc(S(=O)(=O)N[C@H]5CC[C@H](O)CC5)ccc4C)cnc3c(N)n2)s1 [Example 35, 3-[8-Amino-6-(2-methylthiazol-5-yl)imidazo[1,2-a]pyrazin-3-yl]-N-(trans-4-hydroxycyclohexyl)-4-methylbenzenesulfonamide] | 100 to 500 | < 100 | < 100 |  |
| CNc1nc(-c2ccccc2F)cn2c(-c3cc(S(=O)(=O)N[C@H]4CC[C@H](O)CC4)ccc3C)cnc12 [Example 36, 3-[6-(2-Fluorophenyl)-8-(methylamino)imidazo[1,2-a]pyrazin-3-yl]-N-(trans-4-hydroxycyclohexyl)-4-methylbenzenesulfonamide trifluoroacetate] | < 100 | < 100 | < 100 |  |
| Cc1cn2c(-c3cc(S(=O)(=O)N[C@H]4CC[C@H](O)CC4)ccc3C)cnc2c(N)n1 [Example 37, 3-(8-Amino-6-methylimidazo[1,2-a]pyrazin-3-yl)-N-(trans-4-hydroxycyclohexyl)-4-methylbenzenesulfonamide] | < 100 | < 100 | 100 to 500 |  |
| CCc1cn2c(-c3cc(S(=O)(=O)N[C@H]4CC[C@H](O)CC4)ccc3C)cnc2c(N)n1 [Example 38, 3-(8-Amino-6-ethylimidazo[1,2-a]pyrazin-3-yl)-N-(trans-4-hydroxycyclohexyl)-4-methylbenzenesulfonamide] | < 100 | < 100 | < 100 |  |
| Cc1ccc(S(=O)(=O)N[C@H]2CC[C@H](O)CC2)cc1-c1cnc2c(N)ncnn12 [Example 39, 3-(4-Aminoimidazo[2,1-f][1,2,4]triazin-7-yl)-N-(trans-4-hydroxycyclohexyl)-4-methylbenzenesulfonamide] | 100 to 500 | < 100 | 100 to 500 |  |
| Cc1ccc(-c2cnc3c(N)nccn23)cc1S(=O)(=O)N[C@H]1CC[C@H](O)CC1 [Example 41, 5-(8-Aminoimidazo[1,2-a]pyrazin-3-yl)-N-(trans-4-hydroxycyclohexyl)-2-methylbenzenesulfonamide] | 100 to 500 | < 100 | > 1000 |  |
| Nc1nccn2c(-c3cc(S(=O)(=O)N[C@H]4CC[C@H](O)CC4)ccc3F)cnc12 [Example 42, 3-(8-Aminoimidazo[1,2-a]pyrazin-3-yl)-4-fluoro-N-(trans-4-hydroxycyclohexyl)benzenesulfonamide] | 500 to 2000 | < 100 | 500 to 1000 |  |
| Cc1ccc(S(=O)(=O)NC2CC2)cc1-c1cnc2c(N)nccn12 [Example 47, 3-(8-Aminoimidazo[1,2-a]pyrazin-3-yl)-N-cyclopropyl-4-methylbenzenesulfoanmide] | 500 to 2000 | < 100 |  | > 1000 |
| Cc1ccc(S(=O)(=O)NCC2CCOC2)cc1-c1cnc2c(N)nccn12 (stereo not drawn) [Example 48, 3-(8-Aminoimidazo[1,2-a]pyrazin-3-yl)-4-methyl-N-(tetrahydrofuran-3-ylmethyl)benzenesulfonamide] | 500 to 2000 | < 100 | > 1000 |  |
| Cc1ccc(S(=O)(=O)NC2CCOCC2)cc1-c1cnc2c(N)nccn12 [Example 49, 3-(8-Aminoimidazo[1,2-a]pyrazin-3-yl)-4-methyl-N-(tetrahydro-2H-pyran-4-yl)benzenesulfonamide] | 500 to 2000 | < 100 | > 1000 |  |
| Cc1ccc(S(=O)(=O)NCCCO)cc1-c1cnc2c(N)nccn12 [Example 50, 3-(8-Aminoimidazo[1,2-a]pyrazin-3-yl)-N-(3-hydroxypropyl)-4-methylbenzenesulfonamide] | 500 to 2000 | < 100 | > 1000 |  |
